In US20120171123A1, “USES AND COMPOSITIONS FOR TREATMENT OF RHEUMATOID ARTHRITIS” (priority 2006, published 2012):
Marks after values point to notes of the source that are not given here.

Columns and labels:
[1] = system: patients with severe, active RA; test: Study 2 / Study 3 OLE (adalimumab monotherapy): FACIT-F fatigue; assay type: in vivo, human
Method: (§1) In addition to the SF-36 instrument, the Health Utilities Index Mark 3 (HUI3) and the Functional Assessment of Chronic Illness Therapy-Fatigue (FACIT-F) questionnaires were administered at baseline, 12 weeks, and the end of the study.
(§2) The HUI3 scale is 0-1, with “1” denoting perfect health and “0” denoting death. FACIT-F scores range from 0-52, with higher scores representing less fatigue. The SF-36 includes one multi-item scale that assesses eight different dimensions of health, including physical and psychosocial components. For each dimension a value of 0-100 is given, with higher numbers representing less impairment. Changes in HUI3 of ≧0.03, in FACIT-F of ≧4 and in SF-36 of ≧4.4 (physical subscales) and ≧3.1 (mental subscales) are considered clinically meaningful.
All patients studied had severe, active RA. Patients' fatigue was measured by the FACIT-F, which is validated for RA.
FACIT-F was administered at baseline, at 1 or 2 time points during the study, and at the end of the study. The questionnaire asked each patient the following “Below is a list of statements that other people with your illness have said are important. By circling one (1) number per line, please indicate how true each statement has been for you during the past 7 days.” The questions in the questionnaire used to determine the FACIT score included the following, where each patient indicated the appropriate number (0-4): I feel fatigued; I feel weak all over; I feel listless (“washed out”); I feel tired; I have trouble starting things because I am tired; I have trouble finishing things because I am tired; I have energy; I am able to do my usual activities; I need to sleep during the day; I am too tired to eat; I need help doing my usual activities; I am frustrated by being too tired to do the things I want to do; I have to limit my social activity because I am tired. FACIT-F scores range from 0-52, with higher scores representing less fatigue. FACIT-F changes of ≧4 are considered clinically meaningful.
Data were obtained from a health economics companion study to a pivotal trial of adalimumab, which rolled over into a long-term, open-label extension (OLE) study. […] Patients' fatigue was measured by the FACIT-F questionnaire. FACIT-F was administered at baseline, and at several time points during the study. FACIT-F scores range from 0-52, with higher scores representing less fatigue. Changes in FACIT-F scores of ≧4 were considered clinically meaningful.
(§3) In addition to clinical parameters, the SF-36 instrument, the Health Utilities Index Mark 3 (HUI3), and the Functional Assessment of Chronic Illness Therapy-Fatigue (FACIT-F) questionnaires were administered at baseline, and at weeks 12, 26, 50, 74, 98, 122, 146 and 170, respectively. The HUI3 scale ranges from 0-1, with “1” denoting perfect health and “0” denoting death. FACIT-F scores range from 0-52, with higher scores representing less fatigue. SF-36 scores range from 0-100 with higher scores indicating improvement in HRQoL. Changes in HUI3 scores of ≧0.03, 1 FACIT-F scores of ≧4, 2 and individual SF-36 domain scores of 5-103 are considered clinically meaningful.

[2] = system: patients with severe RA who had failed at least one DMARD; test: Study 2 / Study 3 OLE (adalimumab 40 mg eow monotherapy): HUI3 health utility; assay type: in vivo, human; conditions: for mean HUI3 change from baseline: week 26 (6 months), monotherapy
Method: as §1, §2
The HUI3 was assessed at baseline, and at several time points during the study. Health Utility Index 3 (scale=0-1) measures preference of a health state, with “1” denoting perfect health and “0” denoting death. HUI3 changes of ≧0.03 are considered clinically important. The HUI3 classification system consists of 8 attributes and 5 or 6 levels on each attribute, ranging from full function to severe impairment.
Inclusion criteria for this study included: all patients had severe active disease; and all patients had failed prior DMARD(s).
The Health Utilities Index Mark 3 (HUI3) was assessed at three time points. HUI 3 consists of 8 attributes: vision, hearing, speech, ambulation, dexterity, emotion, cognition, and pain. HUI3 score changes of ≧0.03 are considered clinically important. […] As can also be seen in this figure, the Study 2 study population started with baseline values reflecting a patient population with a more severe disease activity than in Study I, as documented by TJC, SJC, HAQ, CRP, and number of previous DMARDs.
as §3

adalimumab: human anti-TNF mAb (HUMIRA, Abbott Laboratories), described in U.S. Pat. No. 6,090,382 as D2E7
FACIT-F change from baseline ([1]; 12 weeks): 7.2
mean FACIT-F change from baseline ([1]; week 26 (6 months), monotherapy): 8.5 b, c
mean FACIT-F change from baseline ([1]; week 26 (6 months), monotherapy, listed as ada): 8.5
mean FACIT-F change from baseline ([1]; week 50): 7.3 ^b
mean FACIT-F change from baseline ([1]; week 98): 7.2 ^b
mean FACIT-F change from baseline ([1]; week 146): 7.1 ^b
mean FACIT-F change from baseline ([1]; week 170): 7.2 ^b
patients reaching HUI3 MCID of 0.03 change from baseline ([2]; week 12 through week 170): about 60%
mean HUI3 change from baseline [2]: 0.18 a, b
mean HUI3 change from baseline ([2]; listed as ada): 0.18
mean HUI3 improvement from baseline ([2]; week 50 (1 year)): +0.17
mean HUI3 improvement from baseline ([2]; week 50 (1 year), listed as ada): 0.17
mean HUI3 improvement from baseline ([2]; week 170 (3 years)): +0.19
mean HUI3 improvement from baseline ([2]; week 170 (3 years), listed as ada): 0.19
